Laboratory results from US9133217B2 (Salix Pharmaceuticals, Ltd, priority 2011, dated 2015).
Entries after “also recorded” stand apart in the source; their conditions may differ. Like-named read-outs stand apart in the source and are kept apart here.

Assays:
Format in all cases: physicochemical
[1] = Moisture sorption/desorption (dynamic vapor sorption, DVS); details: for weight gain from 5 to 95% RH / weight gain (adsorption) from 5 to 95% RH: sorption 5 to 95% RH; for Post-DVS XRPD (solid form after moisture sorption): specimen after DVS cycle 5-95-5% RH; for hygroscopicity (in words): from moisture sorption/desorption
Experimental: Automated vapor sorption (VS) data were collected on a VTI SGA-100 Vapor Sorption Analyzer. NaCl and PVP were used as calibration standards. Samples were not dried prior to analysis. Sorption and desorption data were collected over a range from 5 to 95% RH at 10% RH increments under a nitrogen purge. The equilibrium criterion used for analysis was less than 0.0100% weight change in 5 minutes with a maximum equilibration time of 3 hours. Data were not corrected for the initial moisture content of the samples.
Moisture sorption/desorption data were collected on a VTI SGA-100 Vapor Sorption Analyzer. Sorption and desorption data were collected over a range of 5% to 95% relative humidity (RH) at 10% RH intervals under a nitrogen purge. Samples were not dried prior to analysis. Equilibrium criteria used for analysis were less than 0.0100% weight change in 5 minutes, with a maximum equilibration time of 3 hours if the weight criterion was not met. Data were not corrected for the initial moisture content of the samples. NaCl and PVP were used as calibration standards.

[2] = Stressing under various relative humidities / temperature and vacuum, resulting solid form by XRPD
Experimental: The jar was sealed and stored at either ambient temperature or in an oven at elevated temperature.
(§1) X-ray powder diffraction (XRPD) analyses were performed using an Inel XRG-3000 diffractometer equipped with a CPS (Curved Position Sensitive) detector with a […] of 120°. Real time data were collected using Cu—Kα radiation. The tube voltage and amperage were set to 40 kV and 30 mA, respectively. The monochromator slit was set at 1-5 mm by 160 μm. […] Samples were prepared for analysis by packing them into thin-walled glass capillaries. Each capillary was mounted onto a goniometer head that is motorized to permit spinning of the capillary during data acquisition. The samples were analyzed for 300 seconds. Instrument calibration was performed using a silicon reference standard.
Samples were also analyzed using a PANalytical X'Pert Pro diffractometer. The specimen was analyzed using Cu radiation produced using an Optix long fine-focus source. An elliptically graded multilayer mirror was used to focus the Cu K α X-rays of the source through the specimen and onto the detector. The specimen was sandwiched between 3-micron thick films, analyzed in transmission geometry, and rotated to optimize orientation statistics. A beam-stop and a helium purge were used to minimize the background generated by air scattering. Soller slits were used for the incident and diffracted beams to minimize axial divergence. Diffraction patterns were collected using a scanning position-sensitive detector (X'Celerator) located 240 mm from the specimen […] a silicon specimen (NIST standard reference material 640c) was analyzed to verify the position of the silicon 111 peak.

[3] = Rifaximin drying experiments, resulting solid form by XRPD
Experimental: as §1

## CO[C@H]1/C=C/O[C@@]2(C)Oc3c(C)c(O)c4c(O)c(c5c(nc6cc(C)ccn65)c4c3C2=O)NC(=O)/C(C)=C\C=C\[C@H](C)[C@H](O)[C@@H](C)[C@@H](O)[C@@H](C)[C@H](OC(C)=O)[C@@H]1C [Form Xi, Rifaximin]
[1]; DVS, desorption 95 to 5% RH, listed as rifaximin Form Xi
  weight loss from 95 to 5% RH: 10.5%
[1]; DVS, equilibration at 5% RH, listed as rifaximin Form Xi
  initial weight loss upon equilibration at 5% RH: 7.2%
[1]; DVS, listed as rifaximin Form Xi
  weight gain from 5 to 95% RH: 7.9%
[1]; listed as rifaximin Form Xi
  Post-DVS XRPD (solid form after moisture sorption): became disordered

## CO[C@H]1/C=C/O[C@@]2(C)Oc3c(C)c(O)c4c(O)c(c5c(nc6cc(C)ccn65)c4c3C2=O)NC(=O)/C(C)=C\C=C\[C@H](C)[C@H](O)[C@@H](C)[C@@H](O)[C@@H](C)[C@H](OC(C)=O)[C@@H]1C [Form Mu, Rifaximin]
[1]; DVS, desorption 95 to 5% RH, listed as rifaximin Form μ
  weight loss from 95 to 5% RH: 9.3%
[1]; DVS, equilibration at 5% RH, listed as rifaximin Form μ
  initial weight loss upon equilibration at 5% RH: 11.0%
[1]; DVS, listed as rifaximin Form μ
  weight gain from 5 to 95% RH: 9.5%
[1]; moisture balance, desorption
  % wt lost from 95%-5% RH: 9.3 % wt lost from 95%-5% RH
[1]; moisture balance, equilibration at 5% RH, signed change
  % wt change upon equilibration at 5% RH: −11.0 % wt change upon equilibration at 5% RH
[1]; moisture balance, sorption
  % wt gain from 5%-95% RH: 9.5 % wt gain from 5%-95% RH
[1]; listed as Rifaximin Form Mu
  Post-DVS XRPD (solid form after moisture sorption): Form γ
[1]; listed as rifaximin Form μ
  Post-DVS XRPD (solid form after moisture sorption): converted to Form Gamma
[2]; 59-62° C./Vacuum, ~24 hours
  XRPD result after stress: γ
[2]; 60° C./Vacuum, ~24 hours, listed as Form μ
  XRPD result after stress: irreversibly desolvates to Form Gamma; also recorded: irreversibly desolvates to Form γ
[2]; 60° C./Vacuum, ~24 hours, listed as Rifaximin Form μ
  XRPD result after stress: γ
[2]; 97% RH (RT), 16 days, listed as Form μ
  XRPD result after stress: converted to Form Beta
[2]; 97% RH (RT), 16 days, listed as Rifaximin Form μ
  XRPD result after stress: μ + β

## CO[C@H]1/C=C/O[C@@]2(C)Oc3c(C)c(O)c4c(O)c(c5c(nc6cc(C)ccn65)c4c3C2=O)NC(=O)/C(C)=C\C=C\[C@H](C)[C@H](O)[C@@H](C)[C@@H](O)[C@@H](C)[C@H](OC(C)=O)[C@@H]1C [Form Omicron, Rifaximin]
[1]
  wt % change on equilibration at 5% RH: −15.0 wt % change on equilibration at 5% RH
[1]; DVS, equilibration at 5% RH, listed as Rifaximin Form Omicron
  initial weight loss at 5% RH upon equilibration: ~15 wt %
[1]; listed as Rifaximin Form Omicron
  Post-DVS XRPD (solid form after moisture sorption): Form Iota with a significant amount of disorder

## CO[C@H]1/C=C/O[C@@]2(C)Oc3c(C)c(O)c4c(O)c(c5c(nc6cc(C)ccn65)c4c3C2=O)NC(=O)/C(C)=C\C=C\[C@H](C)[C@H](O)[C@@H](C)[C@@H](O)[C@@H](C)[C@H](OC(C)=O)[C@@H]1C [α dry, Rifaximin, reference compound]
[2]; 58% RH, 2 days, room temperature
  XRPD Form after stressing: β
[2]; 75% RH, 2 days, room temperature
  XRPD Form after stressing: β
[2]; 94% RH, 2 days, room temperature
  XRPD Form after stressing: β

## CO[C@H]1/C=C/O[C@@]2(C)Oc3c(C)c(O)c4c(O)c(c5c(nc6cc(C)ccn65)c4c3C2=O)NC(=O)/C(C)=C\C=C\[C@H](C)[C@H](O)[C@@H](C)[C@@H](O)[C@@H](C)[C@H](OC(C)=O)[C@@H]1C [Form Pi, Rifaximin]
[1]; DVS, desorption 95 to 5% RH
  weight lost from 95 to 5% RH: 11.3 wt % lost from 95 to 5% RH
[1]; DVS, desorption 95 to 5% RH, listed as Rifaximin Form Pi
  weight loss from 95 to 5% RH: 11.3%
[1]; DVS, equilibration at 5% RH
  initial weight loss at 5% RH upon equilibration: 1.3 wt %
[1]; DVS, equilibration at 5% RH, signed change
  wt % change on equilibration at 5% RH: −1.3 wt % change on equilibration at 5% RH
[1]; DVS, listed as Rifaximin Form Pi
  weight gain (adsorption) from 5 to 95% RH: 10.5 wt %
[1]; DVS, listed as Rifaximin Pi
  weight gain (adsorption) from 5 to 95% RH: 10.5 wt % gain from 5 to 95% RH
[1]; listed as Rifaximin Form Pi
  hygroscopicity (in words): reversibly hygroscopic
  Post-DVS XRPD (solid form after moisture sorption): Form Pi
[1]; listed as Rifaximin Pi
  Post-DVS XRPD (solid form after moisture sorption): Pi

## CO[C@H]1/C=C/O[C@@]2(C)Oc3c(C)c(O)c4c(O)c(c5c(nc6cc(C)ccn65)c4c3C2=O)NC(=O)/C(C)=C\C=C\[C@H](C)[C@H](O)[C@@H](C)[C@@H](O)[C@@H](C)[C@H](OC(C)=O)[C@@H]1C [Form Eta, Rifaximin]
[3]; vac oven, 40° C., 1 day, listed as η
  XRPD Form after drying: η

## CO[C@H]1/C=C/O[C@@]2(C)Oc3c(C)c(O)c4c(O)c(c5c(nc6cc(C)ccn65)c4c3C2=O)NC(=O)/C(C)=C\C=C\[C@H](C)[C@H](O)[C@@H](C)[C@@H](O)[C@@H](C)[C@H](OC(C)=O)[C@@H]1C [Form Gamma, Rifaximin, reference compound]
[1]; DVS, desorption 95 to 5% RH, listed as Rifaximin Form Gamma
  weight loss from 95 to 5% RH: 11.7%
[1]; DVS, equilibration at 5% RH, listed as Rifaximin Form Gamma
  initial weight loss upon equilibration at 5% RH: 2.4%
[1]; DVS, listed as Rifaximin Form Gamma
  weight gain from 5 to 95% RH: 10.8%
[1]; listed as Rifaximin Form Gamma
  hygroscopicity (in words): hygroscopic
[3]; vac oven / under vacuum, ambient, 1 day, listed as Form γ
  XRPD Form after drying: remained unchanged

## CO[C@H]1/C=C/O[C@@]2(C)Oc3c(C)c(O)c4c(O)c(c5c(nc6cc(C)ccn65)c4c3C2=O)NC(=O)/C(C)=C\C=C\[C@H](C)[C@H](O)[C@@H](C)[C@@H](O)[C@@H](C)[C@H](OC(C)=O)[C@@H]1C [α, Rifaximin, reference compound]
[2]; P205, 4 days, room temperature
  XRPD Form after stressing: α dry

## CO[C@H]1/C=C/O[C@@]2(C)Oc3c(C)c(O)c4c(O)c(c5c(nc6cc(C)ccn65)c4c3C2=O)NC(=O)/C(C)=C\C=C\[C@H](C)[C@H](O)[C@@H](C)[C@@H](O)[C@@H](C)[C@H](OC(C)=O)[C@@H]1C [Form Theta, Rifaximin, reference compound]
[2]; 75% RH (40° C.), 6 hrs
  form after exposure to humidity (XRPD): μ + η
[2]; 75% RH (RT), 6 hrs
  form after exposure to humidity (XRPD): convert at least partially to Form μ
[2]; 75% RH (RT), 6 hrs, listed as Rifaximin Form Theta
  form after exposure to humidity (XRPD): convert to Form μ
[2]; 75% RH (RT), 6 hrs, listed as θ
  form after exposure to humidity (XRPD): μ + ι

## CO[C@H]1/C=C/O[C@@]2(C)Oc3c(C)c(O)c4c(O)c(c5c(nc6cc(C)ccn65)c4c3C2=O)NC(=O)/C(C)=C\C=C\[C@H](C)[C@H](O)[C@@H](C)[C@@H](O)[C@@H](C)[C@H](OC(C)=O)[C@@H]1C [Form Zeta, Rifaximin]
[2]; 43% RH, 3 days, room temperature
  XRPD Form after stressing: conversion to Form γ
[2]; 43% RH, 3 days, room temperature, listed as Form ζ
  XRPD Form after stressing: conversion to Form γ
[2]; 43% RH, 3 days, room temperature, listed as ζ
  XRPD Form after stressing: γ
[2]; 51% RH (RT), ~20 min
  form after exposure to humidity (XRPD): converts to Form Mu
[2]; 51% RH (RT), ~20 min, listed as ζ
  form after exposure to humidity (XRPD): μ
[2]; 58% RH, 3 days, room temperature, listed as ζ
  XRPD Form after stressing: ζ
[2]; 75% RH, 3 days, room temperature, listed as ζ
  XRPD Form after stressing: ζ
[2]; 94% RH, 3 days, room temperature, listed as Form ζ
  XRPD Form after stressing: Form γ+γ−1
[2]; 94% RH, 3 days, room temperature, listed as ζ
  XRPD Form after stressing: β + ζ
[2]; stability chamber 75% RH @40° C., 1 day
  XRPD Form after stressing: ζ + Y
[3]; air dry
  XRPD Form after drying: γ
[3]; open vial in hood
  XRPD Form after drying: γ
[3]; stored in refrigerator 3 weeks
  XRPD Form after storage: ζ
[3]; vac dry
  XRPD Form after drying: γ + η
[3]; vac oven / under vacuum, ambient, 1 day
  XRPD Form after drying: Form η
[3]; vac oven / under vacuum, ambient, 1 day, listed as ζ
  XRPD Form after drying: η
[3]; vac oven, 40° C., 1 day
  XRPD Form after drying: remained unchanged
[3]; vac oven, 45° C., 2 days
  XRPD Form after drying: η
